This note sets out measurements from the NIST ThermoML archive (doi:10.1021/je800105r).

± gives the expanded uncertainty stated by the source.

The data set in a line: activity coefficient (dimensionless); of the first substance listed, at infinite dilution; xn = mol fraction of the nth substance listed. As to conditions: Liquid, Chromatography, x1 = 0.

Regarding `C=CCCC` [1-pentene] + CCCCCCCCCCCCCC[P+](CCCCCC)(CCCCCC)CCCCCC.O=S(=O)([N-]S(=O)(=O)C(F)(F)F)C(F)(F)F, the activity coefficient amounted to 0.78 ± 0.05 (303.15 K), 0.8 ± 0.05 (308.15 K), 0.82 ± 0.05 (313.15 K) and 0.85 ± 0.05 (318.15 K).

For `C=CCCCC` [hex-1-ene] + CCCCCCCCCCCCCC[P+](CCCCCC)(CCCCCC)CCCCCC.O=S(=O)([N-]S(=O)(=O)C(F)(F)F)C(F)(F)F, the activity coefficient reads like this: (303.15 K) 0.88 ± 0.06; (308.15 K) 0.9 ± 0.06; (313.15 K) 0.92 ± 0.06; (318.15 K) 0.97 ± 0.06.

`CCCO` [propan-1-ol] + CCCCCCCCCCCCCC[P+](CCCCCC)(CCCCCC)CCCCCC.O=S(=O)([N-]S(=O)(=O)C(F)(F)F)C(F)(F)F: the activity coefficient by setting is: (303.15 K) 1.42 ± 0.09; (308.15 K) 1.4 ± 0.09; (313.15 K) 1.39 ± 0.09; (318.15 K) 1.38 ± 0.09.

Take `CCCCC` [pentane] + CCCCCCCCCCCCCC[P+](CCCCCC)(CCCCCC)CCCCCC.O=S(=O)([N-]S(=O)(=O)C(F)(F)F)C(F)(F)F: the activity coefficient is, setting by setting: (303.15 K) 0.94 ± 0.06; (308.15 K) 0.96 ± 0.06; (313.15 K) 0.99 ± 0.06; (318.15 K) 1.02 ± 0.06.

Take `CO` [methanol] + CCCCCCCCCCCCCC[P+](CCCCCC)(CCCCCC)CCCCCC.O=S(=O)([N-]S(=O)(=O)C(F)(F)F)C(F)(F)F: the activity coefficient (303.15 K) is 1.26 ± 0.08, the activity coefficient (308.15 K) was 1.24 ± 0.08, the activity coefficient (313.15 K) is 1.23 ± 0.08 and the activity coefficient (318.15 K) was found to be 1.23 ± 0.08.

For `CCCCCCCC` [octane] + CCCCCCCCCCCCCC[P+](CCCCCC)(CCCCCC)CCCCCC.O=S(=O)([N-]S(=O)(=O)C(F)(F)F)C(F)(F)F, the activity coefficient by setting is: (303.15 K) 1.32 ± 0.09; (308.15 K) 1.36 ± 0.09; (313.15 K) 1.4 ± 0.09; (318.15 K) 1.46 ± 0.1.

As to `C#CCCCCC` [1-heptyne] + CCCCCCCCCCCCCC[P+](CCCCCC)(CCCCCC)CCCCCC.O=S(=O)([N-]S(=O)(=O)C(F)(F)F)C(F)(F)F, the activity coefficient is 0.59 ± 0.04 (303.15 K), 0.63 ± 0.04 (308.15 K), 0.66 ± 0.05 (313.15 K) and 0.7 ± 0.05 (318.15 K).

For the molecule `C=CCCCCC` [1-heptene] + CCCCCCCCCCCCCC[P+](CCCCCC)(CCCCCC)CCCCCC.O=S(=O)([N-]S(=O)(=O)C(F)(F)F)C(F)(F)F, the activity coefficient was 1 ± 0.06 (303.15 K), 1.02 ± 0.06 (308.15 K), 1.04 ± 0.07 (313.15 K) and 1.09 ± 0.07 (318.15 K).

Take `CCO` [ethanol] + CCCCCCCCCCCCCC[P+](CCCCCC)(CCCCCC)CCCCCC.O=S(=O)([N-]S(=O)(=O)C(F)(F)F)C(F)(F)F: the activity coefficient is, setting by setting: (303.15 K) 1.36 ± 0.09; (308.15 K) 1.33 ± 0.09; (313.15 K) 1.31 ± 0.09; (318.15 K) 1.3 ± 0.08.

In the case of `CCCCCC` [hexane] + CCCCCCCCCCCCCC[P+](CCCCCC)(CCCCCC)CCCCCC.O=S(=O)([N-]S(=O)(=O)C(F)(F)F)C(F)(F)F, the activity coefficient is, setting by setting: (303.15 K) 1.09 ± 0.07; (308.15 K) 1.1 ± 0.07; (313.15 K) 1.13 ± 0.07; (318.15 K) 1.17 ± 0.07.

In the case of `CCCCCCC` [heptane] + CCCCCCCCCCCCCC[P+](CCCCCC)(CCCCCC)CCCCCC.O=S(=O)([N-]S(=O)(=O)C(F)(F)F)C(F)(F)F, the activity coefficient (303.15 K) amounted to 1.26 ± 0.08, the activity coefficient (308.15 K) came out at 1.27 ± 0.08, the activity coefficient (313.15 K) is 1.3 ± 0.08 and the activity coefficient (318.15 K) is 1.33 ± 0.09.

Regarding `C1CCCC1` [cyclopentane] + CCCCCCCCCCCCCC[P+](CCCCCC)(CCCCCC)CCCCCC.O=S(=O)([N-]S(=O)(=O)C(F)(F)F)C(F)(F)F, the activity coefficient (303.15 K) stood at 0.68 ± 0.05, the activity coefficient (308.15 K) was determined as 0.69 ± 0.05, the activity coefficient (313.15 K) turned out to be 0.71 ± 0.05 and the activity coefficient (318.15 K) came to 0.73 ± 0.05.

As to `C#CCCCC` [1-hexyne] + CCCCCCCCCCCCCC[P+](CCCCCC)(CCCCCC)CCCCCC.O=S(=O)([N-]S(=O)(=O)C(F)(F)F)C(F)(F)F, the activity coefficient runs as follows: (303.15 K) 0.66 ± 0.05; (308.15 K) 0.68 ± 0.05; (313.15 K) 0.71 ± 0.05; (318.15 K) 0.74 ± 0.05.

For `C1CCCCCC1` [cycloheptane] + CCCCCCCCCCCCCC[P+](CCCCCC)(CCCCCC)CCCCCC.O=S(=O)([N-]S(=O)(=O)C(F)(F)F)C(F)(F)F, the activity coefficient reads like this: (303.15 K) 0.88 ± 0.06; (308.15 K) 0.91 ± 0.06; (313.15 K) 0.92 ± 0.06; (318.15 K) 0.94 ± 0.06.

In the case of `C=CCCCCCC` [oct-1-ene] + CCCCCCCCCCCCCC[P+](CCCCCC)(CCCCCC)CCCCCC.O=S(=O)([N-]S(=O)(=O)C(F)(F)F)C(F)(F)F, the activity coefficient stood at 1.11 ± 0.07 (303.15 K), 1.14 ± 0.07 (308.15 K), 1.16 ± 0.07 (313.15 K) and 1.21 ± 0.08 (318.15 K).

Consider `c1ccccc1` [benzene] + CCCCCCCCCCCCCC[P+](CCCCCC)(CCCCCC)CCCCCC.O=S(=O)([N-]S(=O)(=O)C(F)(F)F)C(F)(F)F, for which the activity coefficient is 0.38 ± 0.03 (303.15 K), 0.39 ± 0.03 (308.15 K), 0.4 ± 0.03 (313.15 K) and 0.42 ± 0.04 (318.15 K).

As for `C#CCCCCCC` [1-octyne] + CCCCCCCCCCCCCC[P+](CCCCCC)(CCCCCC)CCCCCC.O=S(=O)([N-]S(=O)(=O)C(F)(F)F)C(F)(F)F, the activity coefficient runs as follows: (303.15 K) 0.53 ± 0.04; (308.15 K) 0.55 ± 0.04; (313.15 K) 0.58 ± 0.04; (318.15 K) 0.63 ± 0.04.

For the molecule `C1CCCCC1` [cyclohexane] + CCCCCCCCCCCCCC[P+](CCCCCC)(CCCCCC)CCCCCC.O=S(=O)([N-]S(=O)(=O)C(F)(F)F)C(F)(F)F, the activity coefficient was determined as 0.78 ± 0.05 (303.15 K), 0.8 ± 0.05 (308.15 K), 0.82 ± 0.05 (313.15 K) and 0.85 ± 0.05 (318.15 K).
